# Measurements taken from US9625458B2, “Biosensor” (priority 2002, dated 2017).
# Columns and labels:
# [1] = Fluorescence emission spectra without and with saturating ligand (wavelength shift, ΔIstd, ΔRmax); set-up: key to ΔIstd: intensity change at λstd normalized to average intensity; key to ΔRmax: ratio change of two emission band areas, unbound vs saturated; settings: unbound vs ligand-saturated; for ΔIstd: standard intensity change; for ΔRmax: standard ratiometric change
# Description: (§1) Fluorimetry. All measurements were conducted with an SLM Aminco-Bowman series 2 fluorimeter, with sample stirring at 25° C. Fluorescence emission spectra were acquired with excitation and emission slit widths of 4 and 8 nm, respectively. Photomultiplier tube potential was maintained between 400 and 800 volts. Protein concentrations were in the range of 50 to 1000 nM. Fluorophore-specific excitation was at the following approximate wavelengths: tryptophan, 290 nm; acrylodan, 390 nm; fluorescein, 485 nm; pyrene, 340 nm; NBD and NBDE, 490 nm; JPW4039, 485 nm; JPW4042, 470 nm; JPW4045, 470 nm.
# Assessment of fluorescent biosensor function. Fluorescence emission spectra of bPBP-fluorophore conjugates were recorded in the absence and presence of saturating ligand concentrations. Spectral changes were characterized by four parameters: wavelength shift (the difference between the wavelengths of emission maximum in the unbound and ligand-saturated states), direction of intensity change (increase or decrease in intensity at the wavelengths of maximum emission in the two states), standard intensity change (ΔIstd), and standard ratiometric change (ΔR). ΔIstd is defined as the normalized intensity change relative to the average intensity, determined at the wavelength mid-point between the two emission maxima:
# [formula] where λstd=(λmax, unbound+λmax, saturated)/2 and I1, I2 are the fluorescence intensities at λstd of each spectrum respectively (FIG. 4A). ΔR is defined in terms of two emission bands, A1 ([λ1, λ2]) and A2 ([λ3, λ4]) (FIG. 4B):
# [formula] where ^∘A1, […] the areas in the absence of ligand, and ^∞A1, ^∞A2 the areas in the presence of saturating ligand. A computer program was used to enumerate ΔR for all possible pairs of wavelength bands in the two spectra, to identify the optimal sensing condition, defined as the maximum value of ΔR. Adjustable parameters of the algorithm, and their values used for ΔRmax quantities reported here, are: step size (2 nm), step width (10 nm), minimum integration area limit (fraction of total: 0.1), and maximum integration area limit (fraction of total: 1).
# [2] = biological target: E. coli glucose binding protein variant W183C, fluorophore conjugate (Escherichia coli, UniProt P0AEE5, W206C); experiment: biochemical
# Chain of E. coli glucose binding protein variant W183C, fluorophore conjugate (P0AEE5 24-332 W206C limits assumed): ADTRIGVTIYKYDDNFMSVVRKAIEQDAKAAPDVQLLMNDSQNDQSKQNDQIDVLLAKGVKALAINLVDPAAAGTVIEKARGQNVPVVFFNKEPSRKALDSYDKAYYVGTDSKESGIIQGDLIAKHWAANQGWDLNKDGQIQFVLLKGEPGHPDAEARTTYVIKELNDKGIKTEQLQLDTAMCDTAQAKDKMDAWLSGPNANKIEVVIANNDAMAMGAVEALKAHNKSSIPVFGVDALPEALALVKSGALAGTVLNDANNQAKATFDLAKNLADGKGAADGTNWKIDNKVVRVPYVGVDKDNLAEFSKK
# Description: The normal serum glucose range (euglycemia) of 4 to 6 mM is delimited by vertical lines.
# (§2) Molecular Cloning. […] Amplified products were cloned into one of the protein expression vectors pAED4 (Doering, “Functional and structural studies of a small f-actin binding domain” in Ph.D. thesis, Massachusetts Institute of Technology, 1992); pKK223-3 (Brosius & Holy, Proc. Natl. Acad. Sci. USA 81:6929-6933, 1984); or pET vectors (Studier et al., Meth. Enzymol. 185:60-89, 1990) (Novagen). N-terminal oligonucleotide primers were designed to clone only the processed periplasmic form, deleting the signal sequence. The C-terminal primer was designed to append the sequence Gly-Ser-Gly-(His)n or Gly-Ser-(His)n, where n=5, 6, or 10. Two tandem stop codons (TAATGA) follow the last His codon. […] Single amino acid substitutions were generated by overlapping PCR mutagenesis (Ho et al., Gene 77:51-59, 1989). All clones and mutations were confirmed by nucleotide sequencing. In the case of arabinose BP, the single cysteine in the wild type sequence was replaced by alanine to eliminate the possibility of reporter group conjugation to this thiol (Miller et al., J. Biol. Chem. 254:7521-7528, 1979). Additionally the sequence of Fe(III) BP was mutated by substitution of Glu57 with Asp to raise the Kd to a concentration range conveniently measured using Fe(III) citrate.
# (§3) Fluorophore conjugation to cysteine-substituted bPBPs. Thiol-reactive fluorophores obtained from Molecular Probes (Eugene, Oreg.) were 5-iodoacetamidofluorescein (fluorescein); N-(1-pyrene) iodoacetamide (pyrene); N,N′-dimethyl-N-(iodoacetyl)-N′-(7-nitrobenz-2-oxa-1,3-diazol-4-yl)ethylenediamide (NBD); N-((2-(iodoacetoxy)ethyl)-N-methyl)amino-7-nitrobenz-2-oxa-1,3-diazole (NBDE); and 6-acryloyl-2-dimethylaminonaphthalene (acrylodan). The styryl and naphthyl dyes JPW4039, JPW4042, and JPW4045 (FIG. 3) were synthesized at the University of Connecticut. All fluorophore conjugation steps were typically carried out at room temperature. To protein at a concentration of 100 μM was added tris-(2-carboxyethyl)phosphine HCl to a five-fold molar excess to reduce intermolecular disulfide bonds. A thiol-reactive fluorophore (20 to 25 mM in acetonitrile or dimethyl sulfoxide) was added in small aliquots to a five-fold molar excess over protein. Conjugation proceeded in the dark at room temperature for 4 hours, or overnight at 4° C. Separation of protein from unreacted fluorophore was achieved by exhaustive dialysis or by size-exclusion chromatography. The efficiency of reporter group attachment was assessed by determination of unreacted thiol with Ellman's reagent (Ellman, Arch. Biochem. Biophys. 74:443-450, 1958) or by measuring the ratio of fluorophore to protein from absorbance spectra of the purified conjugate.
# as §1
# (§4) Corrections were made for dilution of the protein and for background signal from buffer. Binding curves were fit to binding isotherms using equation 3 or 4, as appropriate.
# Analyte affinity measurements.
# [3] = biological target: T1, E. coli glutamate/aspartate binding protein (YBEJ, SEQ ID NO:3) variant T129C, fluorophore conjugate (Escherichia coli, UniProt P37902, T129C); experiment: Fluorimetric titration of fluorophore conjugates
# T1 construct: The underlined methionine is the initiation codon for expression of YBEJ used in the study; initiation methionine (N); Gly-Ser-Gly-(His)n or Gly-Ser-(His)n (C); made in house; host or cells: E. coli BL21-DE3
# T1 sequence (P37902 other isoform, or with tags, fused parts or gaps T129C): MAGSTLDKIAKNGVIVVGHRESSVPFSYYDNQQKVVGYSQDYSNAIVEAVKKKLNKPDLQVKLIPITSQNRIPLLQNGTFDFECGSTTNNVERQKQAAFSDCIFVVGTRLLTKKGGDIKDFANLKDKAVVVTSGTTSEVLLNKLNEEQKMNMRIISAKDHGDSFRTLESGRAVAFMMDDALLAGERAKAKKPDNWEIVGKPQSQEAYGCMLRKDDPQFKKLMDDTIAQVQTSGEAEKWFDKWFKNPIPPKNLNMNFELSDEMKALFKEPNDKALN
# Description: as §2, §3, §1, §4
# (§5) Analyte affinity measurements. […] The emission wavelength monitored was that of maximum difference in intensity between the ligand-free and bound states. For each conjugate, fluorescence intensiometric observations were fit to a hyperbolic binding isotherm for a two-state model (Marvin et al., Proc. Natl. Acad. Sci. USA 94:4366-4371, 1997): […]
# [4] = biological target: T2, E. coli glutamate/aspartate binding protein (YBEJ, SEQ ID NO:3) variant Q123C, fluorophore conjugate (Escherichia coli, UniProt P37902, Q123C); experiment: Fluorimetric titration of fluorophore conjugates
# T2 construct: The underlined methionine is the initiation codon for expression of YBEJ used in the study; initiation methionine (N); Gly-Ser-Gly-(His)n or Gly-Ser-(His)n (C); made in house; host or cells: E. coli BL21-DE3
# T2 sequence (P37902 other isoform, or with tags, fused parts or gaps Q123C): as the sequence (P37902 other isoform, or with tags, fused parts or gaps T129C) above, with Q96C, C102T counted along it
# Description: as §2, §3, §1, §4, §5
Compound,ΔIstd [1],ΔRmax [1],further results
sulfate BP Y67C Pyrene,0.02,0.48,
sulfate BP L65C Fluorescein,0.39,1.31,
sulfate BP R134C Pyrene,0.15,1.30,
sulfate BP Q294C JPW4042,0.27,1.17,
sulfate BP W290C NBD,0.06,0.11,
sulfate BP W290C Acrylodan,0.04,0.03,
OC[C@H]1OC(O)[C@H](O)[C@@H](O)[C@@H]1O (stereo partly shown) [glucose],,,"Kd ([2]; Kd, Acrylodan conjugate, endosteric site): 5.98 mM; Kd ([2]; Kd, Fluorescein conjugate, endosteric site): 17.6 mM; Kd ([2]; appKd, W183C-acrylodan, ratiometric, F450-459/F486-495): ~10.4 mM; Kd ([2]; appKd, W183C-acrylodan, ratiometric, F450-459/F550-559): ~5 mM; Kd ([2]; appKd, W183C-acrylodan, ratiometric, F472-481/F450-459): ~17.4 mM; Kd ([2]; dissociation constant, W183C-acrylodan): 5.98 mM"
sulfate BP R134C JPW4039,0.08,2.02,
sulfate BP L65C JPW4042,0.40,1.82,
sulfate BP W290C Fluorescein,0.04,0.09,
sulfate BP W290C JPW4042,0.43,0.89,
NC(=O)CC[C@H](N)C(=O)O [glutamine],,,Kd ([3]; T129C-JPW4039): 23 µM; Kd ([3]; T129C-NBD): 12.1 µM; Kd [4]: 49 µM
sulfate BP Y67C Acrylodan,0.00,0.12,
sulfate BP Y67C NBD,0.13,0.20,
NC(=O)C[C@H](N)C(=O)O [asparagine],,,Kd ([3]; T129C-NBD): 5.4 µM; Kd [4]: 96 µM
sulfate BP Q294C Pyrene,0.01,0.08,
sulfate BP Y67C Fluorescein,0.01,0.04,
sulfate BP Q294C Acrylodan,0.04,0.13,
sulfate BP W290C Pyrene,0.16,0.37,
sulfate BP R134C JPW4042,0.52,0.96,
sulfate BP R134C Acrylodan,0.18,2.26,
sulfate BP L65C Pyrene,0.13,1.20,
sulfate BP R134C Fluorescein,0.01,0.02,
sulfate BP R134C NBD,0.58,0.37,
sulfate BP L65C NBD,0.02,0.61,
sulfate BP Q294C NBD,0.00,0.02,
sulfate BP L65C Acrylodan,0.39,2.95,
sulfate BP Q294C Fluorescein,0.00,0.11,
